{
  "source": "patent US8394950B2",
  "about": "“Analogues of coformycin and their use for treating protozoan parasite infections” (Industrial Research Limited, priority 2006, dated 2013)",
  "key": {"P. falciparum [1]": {"system": "P. falciparum", "test": "Visual inspection of parasitemia in infected red blood cells after 48 hours", "type": "cell-based", "settings": "for parasitemia after 48 hours: 1% parasitemia initially"}, "Plasmodium knowlesi": {"system": "Plasmodium knowlesi", "settings": "single dose, primates with Plasmodium knowlesi; cited from earlier work"}, "[2]": {"settings": "in vivo; cited from earlier work"}, "BtADA": {"target": "T1, BtADA (Bos taurus, UniProt P56658)", "T1 construct": "bovine adenosine deaminase from bovine spleen; purchased Sigma-Aldrich Chemical Company; host or cells: bovine spleen", "T1 sequence (P56658 1-363)": "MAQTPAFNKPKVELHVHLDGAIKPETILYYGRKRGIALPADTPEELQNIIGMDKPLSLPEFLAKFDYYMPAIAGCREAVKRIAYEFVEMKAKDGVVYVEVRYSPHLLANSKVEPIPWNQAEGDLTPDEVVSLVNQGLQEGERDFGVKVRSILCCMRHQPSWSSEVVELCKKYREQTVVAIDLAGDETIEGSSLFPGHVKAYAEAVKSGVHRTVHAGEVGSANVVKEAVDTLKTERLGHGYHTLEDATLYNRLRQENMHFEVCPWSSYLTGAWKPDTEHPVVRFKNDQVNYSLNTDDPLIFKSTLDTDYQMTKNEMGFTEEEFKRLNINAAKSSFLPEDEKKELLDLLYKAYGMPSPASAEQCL", "test": "Inhibition of bovine adenosine deaminase (adenosine to inosine, absorbance change)", "type": "biochemical", "procedure": "(§1) Inhibition studies measured both initial and slow-onset rates to establish both the initial dissociation constant (Ki) and the steady-state dissociation constant (Ki*) as previously described [Kicska, G. A., Tyler, P. C., Evans, G. B., Furneaux, R. H., Kim, K., and Schramm, V. L. (2002) J Biol Chem 277, 3219-3225.]. Kd is the lower of these values.\n(§2) Concentrations of inhibitors were determined spectrophotometrically using the extinction coefficient of 8250 M^−1cm^−1 at 282 nm.\n(§3) (V. L. Schramm, D. C. Baker, Biochemistry, 1985, 24, 641-646). Inhibitor concentrations ranging from 10 μM to 2 nM were used for determination of the inhibition constants and an enzyme concentration of 1 nM. The Ki values were determined by fitting the initial rate and inhibitor concentrations to the following expression of competitive inhibition: (V′o/Vo)=(KM+[S])/(KM+[S]+(KM[I]/Ki)) where V′o is the initial rate in the presence of inhibitor, and Vo is the initial rate in the absence of inhibitor, [I] is the inhibitor concentration, and [S] is the substrate concentration."}, "HsADA": {"target": "T2, HsADA (Homo sapiens, UniProt P00813)", "T2 construct": "Human adenosine deaminase from human erythrocytes; purchased Sigma-Aldrich Chemical Company; host or cells: human erythrocytes", "T2 sequence (P00813 1-363)": "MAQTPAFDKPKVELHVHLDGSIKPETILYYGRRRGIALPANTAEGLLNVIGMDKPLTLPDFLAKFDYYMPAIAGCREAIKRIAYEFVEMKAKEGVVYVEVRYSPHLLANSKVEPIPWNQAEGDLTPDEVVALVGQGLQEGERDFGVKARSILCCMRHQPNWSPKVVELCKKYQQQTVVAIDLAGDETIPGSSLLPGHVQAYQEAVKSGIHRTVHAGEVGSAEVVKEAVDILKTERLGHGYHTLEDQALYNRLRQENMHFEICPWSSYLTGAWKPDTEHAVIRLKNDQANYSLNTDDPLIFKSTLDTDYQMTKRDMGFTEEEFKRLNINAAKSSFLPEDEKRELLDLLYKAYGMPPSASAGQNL", "test": "Inhibition of human adenosine deaminase (adenosine to inosine, absorbance change)", "type": "biochemical", "procedure": "as §1, §2, §3"}, "PfADA": {"target": "T3, PfADA (Plasmodium falciparum, UniProt Q8IJA9)", "T3 sequence (Q8IJA9 1-367)": "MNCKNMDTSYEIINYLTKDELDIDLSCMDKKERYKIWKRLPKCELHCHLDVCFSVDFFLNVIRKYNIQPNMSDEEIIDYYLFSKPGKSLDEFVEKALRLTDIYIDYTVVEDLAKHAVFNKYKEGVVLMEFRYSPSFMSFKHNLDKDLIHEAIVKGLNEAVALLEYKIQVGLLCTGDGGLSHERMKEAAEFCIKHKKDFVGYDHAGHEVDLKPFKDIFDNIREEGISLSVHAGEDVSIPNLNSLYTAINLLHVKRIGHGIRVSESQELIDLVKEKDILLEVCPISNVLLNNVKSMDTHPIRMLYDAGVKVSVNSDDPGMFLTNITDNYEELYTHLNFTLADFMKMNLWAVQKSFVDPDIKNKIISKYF", "test": "biochemical", "type": "biochemical", "procedure": "as §1, §2, §3"}, "P. falciparum [3]": {"system": "P. falciparum", "settings": "cited from earlier work; for killing of P. falciparum in culture (in words): in culture / growing in human erythrocytes"}, "P. falciparum strain 3D7": {"system": "P. falciparum strain 3D7", "test": "P. falciparum culture kill curves, uptake of tritiated ethanolamine in red blood cells", "type": "cell-based", "settings": "for IC50: read-out: IC50, prevention of growth of P. falciparum (uptake of tritiated ethanolamine)", "procedure": "Human erythrocytes were collected from local volunteers under protocol CCI 00-31 or CCI 99-240 of the Albert Einstein College of Medicine. Cultures of P. falciparum strain 3D7 were grown in RPMI supplemented with 0.5% Albumax II (Invitrogen) and were sorbitol-synchronized twice before initiation of the 72 hour assay in 96-well plates with a total volume of 200 μL at 1% hematocrit and 0.8% parasitemia (100% rings). […] Drugs were dissolved in water and diluted with media prior to addition to cultures. […] After 54 h, cell cultures were frozen and thawed to disrupt cells, and the mixtures were harvested on glass fiber filters. Filters were counted in a Winspectral 1414 scintillation counter. Experiments were done twice with six replicate wells for each experiment. Individual data points more than two standard deviations from the mean were discarded. For some experiments, parasitemias were counted on Giemsa-stained smears of cultures treated in parallel."}, "[4]": {"settings": "methylthioadenosine (100 μM) alone"}, "[5]": {"settings": "initial dissociation constant, 100 μM adenosine, pH 7.0, 30° C., read-out: PfADA Ki"}, "[6]": {"settings": "no detectible slow onset, read-out: dissociation constants (PfADA)"}, "[7]": {"settings": "methylthioadenosine (100 μM) plus compound (10 μM)"}},
  "note": "Like-named read-outs stand apart in the source and are kept apart here.",
  "data": [
    {"compound": "5′-methylthioadenosine", "values": [
      {"measurement": "parasitemia after 48 hours", "setting": "P. falciparum [1]; [4]", "result": 8, "unit": "%"},
      {"measurement": "parasites in the ring form after 48 hours", "setting": "P. falciparum [1]; [4]", "result": 97, "unit": "%"}
    ]},
    {"compound": "OC[C@H]1O[C@@H](n2cnc3c2NC=NC[C@H]3O)C[C@@H]1O", "note": "[2′-deoxycoformycin]", "values": [
      {"measurement": "effect on parasitemia (in words)", "setting": "Plasmodium knowlesi", "result": "dramatically reduced parasitemia"},
      {"measurement": "toxicity in mammals (in words)", "setting": "[2]", "result": "highly toxic"}
    ]},
    {"compound": "CSC[C@H]1O[C@@H](n2cnc3c2N=CNC[C@H]3O)C[C@@H]1O", "note": "[5′-MeS-2′-deoxycoformycin (16), (8R)-3-(2′-deoxy-5′-methylthio-β,D-erythro-pentofuranosyl)-8-hydroxy-3,6,7,8-tetrahydroimidazo[4,5-d][1,3]diazepine]", "values": [
      {"measurement": "Ki", "setting": "BtADA; read-out: BtADA Ki", "result": "> 10000", "unit": "nM"},
      {"measurement": "Ki", "setting": "HsADA; read-out: HsADA Ki", "result": "> 10000", "unit": "nM"},
      {"measurement": "Ki", "setting": "PfADA; [5]", "result": "2.3 ± 0.8", "unit": "nM"},
      {"measurement": "Ki", "setting": "PfADA; slow onset equilibrium dissociation constant, read-out: PfADA Ki^a", "result": "0.73 ± 0.22", "unit": "nM"}
    ]},
    {"compound": "CSC[C@H]1N[C@@H](c2c[nH]c3c(=O)[nH]cnc23)[C@H](O)[C@@H]1O", "note": "[5′-Methylthio-Immucillin-H]", "values": [
      {"measurement": "killing of P. falciparum in culture (in words)", "setting": "P. falciparum [3]", "result": "able to kill P. falciparum growing in human erythrocytes"},
      {"measurement": "killing of P. falciparum in culture (in words)", "setting": "P. falciparum [3]; listed as 5′-methylthio-Immucillin-H", "result": "kill P. falciparum in culture"}
    ]},
    {"compound": "O[C@@H]1CNC=Nc2c1ncn2[C@H]1C[C@H](O)[C@@H](CSc2ccccc2)O1", "note": "[5′-PhS-2′-deoxycoformycin (18), (8R)-3-(2′-deoxy-5′-phenylthio-β,D-erythro-pentofuranosyl)-8-hydroxy-3,6,7,8-tetrahydroimidazo[4,5-d][1,3]diazepine]", "values": [
      {"measurement": "Ki", "setting": "BtADA; read-out: BtADA Ki", "result": "> 10000", "unit": "nM"},
      {"measurement": "inhibition of PfADA (in words)", "setting": "PfADA", "result": "no detectible slow onset"},
      {"measurement": "Ki", "setting": "PfADA; [5]", "result": "61 ± 11", "unit": "nM"},
      {"measurement": "Ki", "setting": "PfADA; [6]", "result": 61, "unit": "nM"}
    ]},
    {"compound": "CCCSC[C@H]1O[C@@H](n2cnc3c2N=CNC[C@H]3O)C[C@@H]1O", "note": "[5′-PrS-2′-deoxycoformycin (17), (8R)-3-(2′-deoxy-5′-propylthio-β,D-erythro-pentofuranosyl)-8-hydroxy-3,6,7,8-tetrahydroimidazo[4,5-d][1,3]diazepine]", "values": [
      {"measurement": "Ki", "setting": "BtADA; read-out: BtADA Ki", "result": "> 10000", "unit": "nM"},
      {"measurement": "Ki", "setting": "HsADA; read-out: HsADA Ki", "result": "> 10000", "unit": "nM"},
      {"measurement": "inhibition of PfADA (in words)", "setting": "PfADA", "result": "no detectible slow onset"},
      {"measurement": "Ki", "setting": "PfADA; [5]", "result": "12 ± 1", "unit": "nM"},
      {"measurement": "Ki", "setting": "PfADA; [6]", "result": 12, "unit": "nM"}
    ]},
    {"compound": "OC[C@H]1O[C@@H](n2cnc3c2N=CNC[C@H]3O)[C@H](O)[C@@H]1O", "note": "[Coformycin]", "values": [
      {"measurement": "Ki", "setting": "BtADA; BtADA Ki (nM), initial dissociation constant, 100 μM adenosine, pH 7.0, 30° C., >10,000 = no inhibition at 10 μM", "result": "1.1 ± 0.4", "unit": "nM"},
      {"measurement": "Ki", "setting": "BtADA; BtADA Ki^a (nM), slow onset equilibrium dissociation constant", "result": "0.06 ± 0.01", "unit": "nM"},
      {"measurement": "inhibition of bovine ADA (in words)", "setting": "BtADA; mammalian ADAs", "result": "inhibiting mammalian ADAs with equivalent potency"},
      {"measurement": "Ki", "setting": "HsADA; HsADA Ki (nM), initial dissociation constant, 100 μM adenosine, pH 7.0, 30° C., >10,000 = no inhibition at 10 μM", "result": "13.9 ± 3.4", "unit": "nM"},
      {"measurement": "Ki", "setting": "HsADA; HsADA Ki^a (nM), slow onset equilibrium dissociation constant", "result": "0.11 ± 0.02", "unit": "nM"},
      {"measurement": "inhibition of human ADA (in words)", "setting": "HsADA; mammalian ADAs", "result": "inhibiting mammalian ADAs with equivalent potency"},
      {"measurement": "potency relative to 5′-methylthiocoformycin (times more potent)", "setting": "PfADA; PfADA", "result": "about 5 times"},
      {"measurement": "Ki", "setting": "PfADA; PfADA Ki (nM), initial dissociation constant, 100 μM adenosine, pH 7.0, 30° C.", "result": "0.68 ± 0.07", "unit": "nM"},
      {"measurement": "Ki", "setting": "PfADA; PfADA Ki^a (nM), slow onset equilibrium dissociation constant", "result": "0.08 ± 0.02", "unit": "nM"},
      {"measurement": "Ki", "setting": "PfADA; tightest dissociation constants, slow onset inhibition, range over all three enzymes (BtADA, HsADA, PfADA)", "result": "0.027 to 0.11", "unit": "nM"},
      {"measurement": "IC50", "setting": "P. falciparum strain 3D7; Plasmodium falciparum, 3D7, Erythrocyte, 72 h", "result": 3.5, "unit": "nM"},
      {"measurement": "parasitemia after 48 hours", "setting": "P. falciparum [1]; [7]", "result": 1, "unit": "%"},
      {"measurement": "parasites in the trophozoite form after 48 hours", "setting": "P. falciparum [1]; [7]", "result": 100, "unit": "%"}
    ]},
    {"compound": "O=c1[nH]cnc2c([C@@H]3N[C@H](CO)[C@@H](O)[C@H]3O)c[nH]c12", "note": "[Immucillin-H]", "values": [
      {"measurement": "time to purine-less death", "setting": "P. falciparum [3]; P. falciparum-infected erythrocytes, simultaneous inhibition of host and parasite PNP", "result": "≤ 24", "unit": "h"}
    ]},
    {"compound": "(8R)-8-hydroxy-3-(5-methylthio-β-D-ribofuranosyl)-3,6,7,8-tetrahydroimidazo[4,5-d][1,3]diazepine [5′-MeS-Coformycin (8)]", "values": [
      {"measurement": "killing of P. falciparum growing in human erythrocytes (in words)", "setting": "P. falciparum strain 3D7", "result": "kills P. falciparum growing in human erythrocytes"},
      {"measurement": "IC50", "setting": "P. falciparum strain 3D7; strain 3D7 in red blood cells, 72 hour assay, no hypoxanthine supplementation", "result": 62, "unit": "nM"},
      {"measurement": "parasitemia after 48 hours", "setting": "P. falciparum [1]; [7]", "result": 1, "unit": "%"},
      {"measurement": "parasites in the trophozoite form after 48 hours", "setting": "P. falciparum [1]; [7]", "result": 100, "unit": "%"}
    ]}
  ]
}
